The record followed here is ChEMBL document CHEMBL4808209 (J Med Chem, 2021).

Broadly, the half-life is the time needed for the level to fall by half in the phase considered.

Series [1] in a line: Inhibition of sodium channel site 2 (unknown origin) at 0.1 to 1 uM. Conditions: human, dose 0.1-1 µM.
Series [2] can be described thus: Toxicity in SCID mouse xenografted with human KATO III stomach cancer cell line assessed as effect on boy weight at 0.03 to 1 mg/kg, po administered once daily for 10 days. It is filed as organism-based. Conditions: in vivo, 240 h, dose 0.03-1 mg/kg, time 10 day. For orientation: A xenograft is tissue or cells of one species grown in another, often human tumour cells in immunodeficient mice.

A short description of series [3]: Half life in cynomolgus monkey at 2 mg/kg, po or 0.5 mg/kg, iv administered as cassette dose measured after 24 hrs. The note with it: in vivo. Type of series: ADME, organism-based, Macaca fascicularis.
A short description of series [4]: Volume of distribution at steady state in Sprague-Dawley rat at 2 mg/kg, po or 1 mg/kg, iv administered as cassette dose measured after 24 hrs. It is filed as ADME, organism-based. Conditions: in vivo, read-out: Vdss.
The target of series [5] is Gamma-aminobutyric acid receptor subunit alpha-1 (Homo sapiens, UniProt P14867). Description: Inhibition of GABA-A alpha1 BDZ site (unknown origin) at 0.1 to 1 uM. The note with it: dose 0.1-1 µM.
Chain of Gamma-aminobutyric acid receptor subunit alpha-1 (P14867 whole entry): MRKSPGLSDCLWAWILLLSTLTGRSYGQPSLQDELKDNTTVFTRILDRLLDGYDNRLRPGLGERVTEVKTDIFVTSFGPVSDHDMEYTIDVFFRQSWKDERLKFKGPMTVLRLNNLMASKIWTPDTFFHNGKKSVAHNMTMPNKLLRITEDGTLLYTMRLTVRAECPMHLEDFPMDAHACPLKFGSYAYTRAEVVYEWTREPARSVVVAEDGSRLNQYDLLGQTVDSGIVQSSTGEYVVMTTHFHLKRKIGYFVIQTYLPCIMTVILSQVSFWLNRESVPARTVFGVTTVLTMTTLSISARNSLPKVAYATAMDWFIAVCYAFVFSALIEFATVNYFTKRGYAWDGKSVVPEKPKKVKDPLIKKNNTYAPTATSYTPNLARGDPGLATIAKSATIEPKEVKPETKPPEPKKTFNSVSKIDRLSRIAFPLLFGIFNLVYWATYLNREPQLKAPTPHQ
Series [6] deals with Alpha-2A adrenergic receptor (Homo sapiens, UniProt P08913). Put plainly: Inhibition of adrenergic alpha 2A receptor (unknown origin) at 0.1 to 1 uM. The note with it: dose 0.1-1 µM.
Chain of Alpha-2A adrenergic receptor (P08913 whole entry): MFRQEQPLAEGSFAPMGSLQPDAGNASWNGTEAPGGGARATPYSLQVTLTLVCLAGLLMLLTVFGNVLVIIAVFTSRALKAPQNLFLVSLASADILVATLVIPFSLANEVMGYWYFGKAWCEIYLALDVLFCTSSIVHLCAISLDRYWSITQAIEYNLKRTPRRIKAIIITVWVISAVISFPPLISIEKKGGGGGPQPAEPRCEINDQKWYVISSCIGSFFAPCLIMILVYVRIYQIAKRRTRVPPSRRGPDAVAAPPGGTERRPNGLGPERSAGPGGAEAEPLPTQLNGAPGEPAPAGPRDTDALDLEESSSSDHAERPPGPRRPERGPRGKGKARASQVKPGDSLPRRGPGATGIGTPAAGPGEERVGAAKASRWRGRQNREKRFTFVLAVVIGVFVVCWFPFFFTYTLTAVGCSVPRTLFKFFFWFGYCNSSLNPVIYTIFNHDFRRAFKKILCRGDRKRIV
The test system of series [7] is GABA-A receptor; anion channel. Description: Inhibition of GABA A receptor (unknown origin) at 0.1 to 1 uM. Type of series: protein-complex assay. The note with it: human, dose 0.1-1 µM.
Series [8] is described as follows: Inhibition of Glutamate kainate site receptor (unknown origin) at 0.1 to 1 uM. Type of series: ADME. Conditions: human, dose 0.1-1 µM.
The target in series [9] is Leukotriene B4 receptor 1 (Homo sapiens, UniProt Q15722). Description: Inhibition of LTB4 (unknown origin) at 0.1 to 1 uM. Conditions: dose 0.1-1 µM.
Chain of Leukotriene B4 receptor 1 (Q15722 whole entry): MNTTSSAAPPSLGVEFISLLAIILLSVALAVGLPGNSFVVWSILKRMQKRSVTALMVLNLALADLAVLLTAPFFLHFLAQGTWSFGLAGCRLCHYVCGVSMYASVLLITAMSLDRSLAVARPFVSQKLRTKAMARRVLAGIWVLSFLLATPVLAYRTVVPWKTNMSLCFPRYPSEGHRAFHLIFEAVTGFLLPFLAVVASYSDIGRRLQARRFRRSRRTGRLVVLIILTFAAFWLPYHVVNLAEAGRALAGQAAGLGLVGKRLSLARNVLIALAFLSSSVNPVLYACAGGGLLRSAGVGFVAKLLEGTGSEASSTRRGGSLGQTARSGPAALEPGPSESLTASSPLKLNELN
The target in a further series is Adenosine receptor A1 (Homo sapiens, UniProt P30542). Description: Inhibition of adenosine A1 receptor (unknown origin) at 0.1 to 1 uM. Conditions: dose 0.1-1 µM.
Chain of Adenosine receptor A1 (P30542 whole entry): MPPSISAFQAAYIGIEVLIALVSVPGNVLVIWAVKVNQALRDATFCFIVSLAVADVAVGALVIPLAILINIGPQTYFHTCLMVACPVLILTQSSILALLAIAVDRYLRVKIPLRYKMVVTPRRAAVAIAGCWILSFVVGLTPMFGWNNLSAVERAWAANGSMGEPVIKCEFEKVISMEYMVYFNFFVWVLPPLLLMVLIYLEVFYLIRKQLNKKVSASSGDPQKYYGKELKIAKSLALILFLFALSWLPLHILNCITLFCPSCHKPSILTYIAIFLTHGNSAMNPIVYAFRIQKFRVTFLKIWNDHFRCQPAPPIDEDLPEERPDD

For the compound `CCN1C(=O)N(c2c(F)c(OC)cc(OC)c2F)Cc2cnc3[nH]c(CN4CCOCC4)cc3c21` [PEMIGATINIB], the “inhibition (INH)” value in series [1], in series [5], in series [6], in series [7], in series [8] and in series [9] was “Not Active” in each case. For the same compound, the “inhibition (INH)” value against Adenosine receptor A1 is “Not Active”. Also, the Activity entry in series [2] is “Non-Toxic”. Besides, the half-life in series [3] was 10 h. The Vd in series [4] is 1.85 L/kg.
